Read-outs that look alike come from different tables or passages of the source.
Legend:
Assay type in all cases: cell-based
[1] = tested on: Hippo pathway TEAD reporter cells; assay: Hippo signalling TEAD reporter dose response; conditions: 24 hr, inhibition of the Hippo pathway, read-out: IC50 Hippo
Description: The Hippo TEAD reporter cells were seeded as 100,000 cells in 100 μL assay medium per well in 96-well plates (Corning cat. #3903, Falcon cat. #353072). The assay medium consists of the growth medium without G-418. The next day, 5-fold dilutions of the compounds in DMSO were added to the cells at a final concentration of 1% DMSO. After 24 hr incubation, the viability of the cells was determined with CCK-8 cell viability reagent while the luciferase reporter activity was determined with Steady-Glo luciferase reagent.
(§1) The average signal from DMSO treated wells was calculated for each plate, and the signal from each treatment well was normalized against the average DMSO signal from the respective plate. The normalized values were plotted against the concentrations tested using GraphPad Prism 5, and the EC50 values were determined through either three- or four-parameter nonlinear regression.

CRC1463 = assay: Viability of primary patient-derived colorectal cancer cell line
[2] = tested on: Wnt signalling (TOPFlash reporter, STF cells); assay: Wnt STF TOPFlash reporter dose response (Wnt3A-stimulated)
Description: Wnt STF reporter cells (HEK 293 cells stably transfected with TOPFlash reporter) and STF3A reporter cells (STF cells with constitutive secretion of Wnt3A) were kind gifts from David Virshup (Duke-NUS Graduate Medical School, Singapore). HCT116, DLD-1, and SW480 cell lines were obtained from ATCC. The Hippo pathway TEAD reporter (cat. #60618) and Myc signalling pathway reporter (cat. #60520) cells lines were purchased from BPS Bioscience, Inc.
The Wnt STF reporter cells were seeded as 20,000 cells in 100 μL culture medium per well in 96-well plates (Corning cat. #3903, Falcon cat. #353072). The next day, 5-fold dilutions of the compounds in DMSO were added to the cells at a final concentration of 1% DMSO. The cells were also stimulated with 500 ng/mL recombinant human Wnt3A (RnD systems, cat. #5036-WN-010). After 24 hr incubation, the viability of the cells was determined with cell counting kit-8 (CCK-8, Dojindo cat. #CK04) cell viability reagent according to the manufacturer's protocol while the TOPFlash reporter activity was determined with Steady-Glo luciferase reagent.
as §1

[3] = tested on: Wnt target proteins in HCT116 cells; assay: Western blotting of Wnt target and Wnt pathway proteins in HCT116 cells; conditions: 50 μM, 18 hr
Description: HCT116 cells were treated with compounds for 18 hr at a final concentration of 50 μM, 1% DMSO. Cells were lysed on ice in RIPA buffer (Thermo cat. #89900) containing cOmplete™ protease inhibitor cocktail (Roche cat. #11697498001) and PhosSTOP phosphatase inhibitor cocktail (Roche cat. #04906837001). 30 μg per sample of total cellular protein was resolved by SDS-PAGE and blotted onto PVDF membrane (Millipore cat. #IPVH00010). Primary antibodies were incubated overnight at 4° C. and the blots were detected with either IRDye 800CW goat anti-rabbit antibody (LI-COR cat. #926-32211) or IRDye 680RD goat anti-mouse antibody (LI-COR cat. #926-68070) at 1:5000 dilution. Signals were visualized with the LI-COR Odyssey CLx imaging system and bands were quantified using LI-COR Image Studio data analysis software. The primary antibodies used were Met (Cell Signalling Technology cat. #8198, 1:1000), cyclin D1 (Cell Signalling Technology cat. #2978, 1:1000), survivin (Santa Cruz cat. #sc-10811, 1:500), ECAD (Cell Signalling Technology cat. #3195, 1:1000), TCF4/TCF7L2 (Cell Signalling Technology cat. #2569, 1:1000), β-cat (Cell Signalling Technology cat. #8480, 1:1000), β-actin (Abcam cat. #ab8226, 1:3000).

HCT116 cells = assay: Colony formation assay; conditions: HCT116, 30 μM, 7 days
Description: FIG. 4 depicts the inhibit growth by hit compounds and their effects on stemness of Wnt driven cells. (FIG. 4A) Growth curves of HCT116 cells treated daily with compounds at 10 μM. One-way repeated measures ANOVA with Dunnett's multiple comparison test was carried out to determine the significance between compound treatment and DMSO control. *P<0.05, ***P<0.001. (FIG. 4B) Effects of hit compounds on colony formation of HCT116 cells. HCT116 cells were grown in 6-well plates and treated with either DMSO or the compounds at 30 μM for 7 days, following which the cells were fixed and stained with crystal violet. The number of colonies obtained were counted. Two-tailed Student's t-test was carried out between compound treatment and DMSO control. ***P<0.001. (FIG. 4C) Effects of hit compounds on spheroid formation of HCT116 cells. HCT116 cells were grown in ultra-low attachment 96-well plates and treated with either DMSO or the compounds at 30 µM for 14 days, following which the number of spheroids ≥200 μm in size was determined. Two-tailed Student's t-test was carried out between compound treatment and DMSO control. ***P<0.001, **P<0.01. Scale bar represents 1 mm. (FIG. 4D) NSG mice xenografted with HCT116 cells were treated with vehicle control (n=6) or 50 mg/kg GB1874 (n=6) via i.p. every other day for 2 weeks. Tumor volumes were monitored over time. […]

SMILES: CCc1ccc(OCc2nnc(SC3CCCC3=O)n2C(C)c2ccccc2)cc1 (centres unmarked) [GB1874]
- IC50 [1]: > 100 µM
- EC50 (CRC1463): 27 µM
- IC50 ([2]; Table 1, STF reporter cells, 500 ng/mL Wnt3A, 24 hr, read-out: IC50 Wnt (STF)): 11 µM
- IC50 ([2]; Table 3, STF reporter cell line, read-out: STF Inhibition IC50): 6.8 µM
- IC50 ([2]; unit M, read-out: STF IC50): 6.8 µM
- expression of Wnt target genes c-Met, cyclin D1 and survivin (Western blotting) [3]: most effective at reducing the expression of these proteins
- expression of β-cat, ECAD and TCF4 (Western blotting) [3]: minimal effect on the expression of β-cat itself, or the expression of its partner proteins, such as ECAD and TCF4
- colony forming efficiency (HCT116 cells): markedly reduce survival of the cancer stem-like cells

Source: patent publication US12661338B2, “Heterocyclic compounds as modulators of beta-catenin / TCF4 interaction” (AGENCY FOR SCIENCE, TECHNOLOGY AND RESEARCH, priority 2019, dated 2026)
